Measured values as given in US7256279B2, “Protein having ribonucleotide reductase activity and DNA thereof” (Takeda Pharmaceutical Company Limited, priority 1999, dated 2007).

Legend:
Format in all cases: cell-based
MCF7 cells [1] = test: Long-term cell survival (colony count after three weeks) after oligonucleotide introduction and DNA damage; conditions: colonies counted after three weeks
Method: (§1) Short-term and long-term cell survival rates were also measured when TP53R2H expression was suppressed with an antisense oligonucleotide and DNA was damaged.
(§2) 2×10^6 MCF7 cells) were propagated on 10 cm Petri dishes, and after 24 hours a p53R2 antisense oligonucleotide (AS3), a sense oligonucleotide (SE3) and a p53 antisense oligonucleotide (p53AS) were introduced using a lipofectin reagent. 4 hours later the cellular DNA was damaged (3 or 14 Gy γ-ray irradiation, adiamycin 0.2 μg/ml, UV 10 J/m^2).
(§3) In order to study short-term cell survival, the cells were stripped immediately after DNA damage and re-propagated on 6-hole plates to a density of 3×10^5, and cell numbers were counted every day for 6 days. To study long-term cell survival, the cells were re-propagated after DNA damage on 10 cm plates to a density of 1×10^4 or 1×10^3, and the number of colonies 1 mm or more in diameter was counted after three weeks and expressed as a percentage.

MCF7 cells [2] = test: Short-term cell survival (cell numbers counted every day for 6 days) after oligonucleotide introduction and DNA damage; conditions: in both the short- and long-term, after DNA damage (Table 1 and FIG. 6)
Method: as §1, §2, §3

MCF7 cells [3] = test: DNA repair activity through ribonucleotide reductase activity ([3H]-CDP converted to [3H]-dCTP in damaged DNA) after oligonucleotide introduction; conditions: 14 Gy γ-ray irradiation 4 hours after lipofectin introduction, cells collected after 0, 24 and 48 hours (FIG. 5)
Method: DNA repair activity through ribonucleotide reductase activity was measured by converting [^3H]-CDP to [^3H]-dCTP through ribonucleotide reductase in cells, in which the DNA had been damaged, and measuring the radioactivity of [^3H]-dCTP in the damaged DNA.
1×10^6 MCF7 cells were propagated on 10 cm petri dishes, cellular DNA was damaged (14 Gy γ-ray irradiation) 24 hours later, and after 0, 6, 24 and 48 hours the cells were harvested. After washing the cells with Solution A (150 mM sucrose, 80 mM KCl, 35 mM Hepes (pH 7.4), 5 mM potassium phosphate (pH 7.4), 5 mM MgCl2, 0.5 mM CaCl2), these cells were treated for 1 minute at 4° C. with Solution A containing 0.25 mg/ml lysolecithin. […] 75 μl of 0.2N NaOH was added to the DNA obtained, which was then incubated for 30 minutes at 37° C. and mixed with 5 ml of AQUASOL-2 (Packard), and radioactivity was measured with an Aloka LSC-5100 liquid scintillation counter. […]
2×10^6 MCF7 cells were propagated on 10 cm petri dishes, and after 24 hours a TP53R2H antisense oligonucleotide (AS3) a sense oligonucleotide (SE3) and a p53 antisense oligonucleotide (p53AS) were introduced according to attached protocol using a lipofectin reagent (GIBCO BRL). […] DNA repair activity was then measured in the same way as in Example 4 above.

| Substance | long-term cell survival (number of colonies 1 mm or more in diameter, expressed as a percentage) (MCF7 cells [1]; Adriamycin (0.2 μg/ml)) | long-term cell survival (number of colonies 1 mm or more in diameter, expressed as a percentage) (MCF7 cells [1]; UV (10 J/m2)) | long-term cell survival (number of colonies 1 mm or more in diameter, expressed as a percentage) (MCF7 cells [1]; γ-radiation (3Gy)) | sensitivity to DNA damage / cell death (MCF7 cells [2]) | DNA repair activity (MCF7 cells [3]) |
| --- | --- | --- | --- | --- | --- |
| AsGsGsAsTsGsAsGsGsTsAsAsAsTsGsT (AGGATGAGGTAAATGT; all phosphorothioate, sugars by position not given here) [SE3] | 100% | 100% | 100% | – | – |
| AsCsAsTsTsTsAsCsCsTsCsAsTsCsCsT (ACATTTACCTCATCCT; all phosphorothioate, sugars by position and methylation of C not given here) [AS3] | 16% | 22% | 59% | sensitivity to DNA damage increases and cell death is more likely | DNA repair activity declined |
| CsCsCsTsGsCsTsCsCsCsCsCsCsTsGsGsCsTsCsC (CCCTGCTCCCCCCTGGCTCC; all phosphorothioate, sugars by position and methylation of C not given here) [p53AS] | 10% | 11% | 15% | – | DNA repair activity also declined |
